Like-named read-outs stand apart in the source and are kept apart here.
Assays:
MDA-MB-231 cells [1] = test: Annexin V-FITC apoptosis assay; assay type: cell-based, human; conditions: 16 µM, 48 h, vs vehicle control
Procedure: Figure 2 Compound 7 induced cell cycle arrest, apoptosis, and ROS production, in MDA-MB-231 cells. […] (B) Effect of 16 µM of compound 7 on cell cycle progression after 48 h of treatment in MDA-MB-231 cells; the percentage of cells in each phase of the cell cycle was analyzed by flow cytometry, using PI; data are mean ± SEM of three independent experiments. […] (C) Effect of 16 µM of compound 7 on apoptosis after 48 h of treatment; the percentage of Annexin-positive cells was analyzed by flow cytometry using PI and Annexin-V staining; data are mean ± SEM of three independent experiments. […] (D) Effect of 16 µM of compound 7 on mitochondrial ROS generation after 24 h of treatment; data are mean ± SEM of three independent experiments (* p < 0.05, unpaired Student’s t-test). […] (F) The graph represents the quantification of protein expression levels relative to DMSO; data are mean ± SD of three independent experiments. The ability of compound 7 to induce apoptosis in this cell line was also assessed by cytometry, using the Annexin V-FITC assay after 48 h of treatment. […]
The analyses were performed basically as described in [33]. […] The cells were then analyzed by flow cytometry, and cell cycle phases were identified and quantified using the FlowJo × 10.0.7 Software (Treestar, Ashland, OR, USA). […]

MDA-MB-231 cells [2] = test: Combination therapy with etoposide (SRB, CompuSyn), MDA-MB-231; assay type: cell-based, human
Procedure: (§1) The effect of 1.5 μM of compound 7 in combination with a range of concentrations of etoposide was evaluated after 48 h of treatment using CompuSyn software to calculate the combination index (CI) values for each combined treatment: CI < 1, synergy; 1 < CI < 1.1, additive effect; CI > 1.1, antagonism.
(§2) The effect of combined treatments on cell proliferation was analyzed by SRB assay. For each combination, the combination index (CI) values were calculated using the CompuSyn Software version 1.0; CI values < 1, 1 < CI < 1.1, and >1.1 indicate synergistic, additive, and antagonistic effects, respectively.

MCF12A cells = test: Sulforhodamine B antiproliferative assay, non-tumorigenic breast MCF12A; assay type: cell-based; conditions: Homo sapiens, MCF-12A, 48 h of treatment, read-out: IC50 MCF12A (D)
Procedure: (§3) The antiproliferative effect of the isolated compounds (1–11) was investigated by the sulforhodamine B assay against human triple-negative breast cancer cell lines (MDA-MB-468 and MDA-MB-231) and breast ductal carcinoma cells (MCF-7) and the non-tumorigenic fibroblast (HFF-1) and breast cell lines (MCF12A). The IC50 values were determined after 48 h of treatment (Table 1).
(§4) Human breast adenocarcinoma MDA-MB-231, MDA-MB-468, and MCF-7 cell lines and non-tumorigenic foreskin fibroblast (HFF-1) and breast (MCF12A) cell lines were purchased from American Type Culture Collection (ATCC, Rockville, MD, USA). All cancer cell lines, except MCF12A, were routinely cultured in RPMI-1640 medium with glutamine from Corning (VWR, Carnaxide, Portugal) supplemented with 10% fetal bovine serum (FBS) from Biowest (Labclinics, Barcelona, Spain). MCF12A cells were cultured in a 1:1 mixture of Dulbecco’s modified Eagle’s medium and Ham’s F12 medium, 20 ng/mL human epidermal growth factor, 100 ng/mL cholera toxin, 0.01 mg/mL bovine insulin, and 500 ng/mL hydrocortisone and supplemented with 10% FBS. All cells were maintained in a humidified incubator at 37 °C with 5% CO2. All cells were routinely tested for mycoplasma contamination using the MycoAlertTM PLUS detection kit (Lonza, Basel, Switzerland).
(§5) Human cell lines were seeded in 96-well plates at a density of 5.0 × 10^3 (MDA-MB-231, MCF-7, HFF-1, and MCF12A) and 7.5 × 10^3 (MDA-MB-468) cells/well and allowed to adhere for 24 h. Cells were treated with serial dilutions of compounds (ranging from 0.1 to 40 μM) for an additional 48 h. Effect on cell proliferation was measured by sulforhodamine B assay, as described in [33], and the half-maximal inhibitory concentration (IC50) was then determined for each cell line using the GraphPad Prism software version 7.0 (La Jolla, CA, USA).

MDA-MB-231 cells [3] = test: Sulforhodamine B antiproliferative assay, MDA-MB-231; assay type: cell-based, human; conditions: for IC50: sulforhodamine B assay, 48 h of treatment, read-out: IC50 MDA-MDB-231 (A)
Procedure: as §3, §4, §5

MCF-7 cells = test: Sulforhodamine B antiproliferative assay, MCF-7; assay type: cell-based, human
Procedure: as §3, §4, §5

HFF-1 cells = test: Combination therapy with etoposide (SRB, CompuSyn), HFF-1; assay type: cell-based, human; conditions: for Combination Index HFF-1: 48 h
Procedure: as §1, §2

For `COc1cc2c(cc1O)C(=O)OC1[C@@H](O)C=C3CCN(C)C3[C@]21O` (stereo partly drawn) [Compound 7, 2α-10bα-dihydroxy-9-O-demethylhomolycorine], the “percentage of apoptotic (Annexin-positive) cells” value (MDA-MB-231 cells [1]) was “significant increase in the percentage of apoptotic cells”, the “Combination Index MDA-MB-231” value (MDA-MB-231 cells [2]; 1.5 µM compound 7 + etoposide 0.4 µM, 48 h) was 1.23 and the “Combination Index MDA-MB-231” value (MDA-MB-231 cells [2]; 1.5 µM compound 7 + etoposide 0.8 µM, 48 h) was 0.87. For the same molecule, the “Combination Index MDA-MB-231” value (MDA-MB-231 cells [2]; 1.5 µM compound 7 + etoposide 1.5 µM, 48 h) was 0.81, the “Combination Index MDA-MB-231” value (MDA-MB-231 cells [2]; 1.5 µM compound 7 + etoposide 3 µM, 48 h) was 0.86 and the “type of interaction with etoposide, MDA-MB-231” value (MDA-MB-231 cells [2]; 1.5 µM compound 7, etoposide 0.8, 1.5 and 3 µM) was “synergistic effects”. The “effect on growth inhibitory effect of etoposide” value (MDA-MB-231 cells [2]; 1.5 µM compound 7, etoposide 0.8, 1.5 and 3 µM, 48 h) was “significantly increased the growth inhibitory effect of etoposide”, the IC50 (MCF12A cells) was 5.6 ± 0.8 µM and the “effect of compound alone on cancer cell growth” value (MDA-MB-231 cells [3]; 1.5 µM) was “no significant effect on cancer cell growth”. The IC50 (MDA-MB-231 cells [3]; Homo sapiens, MDA-MB-231, 48 h) was 8.02 µM, the “SI E/A” value (MDA-MB-231 cells [3]; selectivity index, HFF-1 vs MDA-MB-231) was 1.65 and the “SI D/A” value (MDA-MB-231 cells [3]; selectivity index, MCF12A vs MDA-MB-231) was 0.69. For the same molecule, the IC50 (MDA-MB-231 cells [3]) was 8 ± 1.68 µM, the IC50 (MCF-7 cells; Homo sapiens, MCF7, 48 h, sulforhodamine B assay, 48 h of treatment, read-out: IC50 MCF-7 (C)) was 6.8 ± 0.2 µM and the “SI D/C” value (MCF-7 cells; selectivity index, MCF12A vs MCF-7) was 0.82. The “Combination Index HFF-1” value (HFF-1 cells; 1.5 µM compound 7 + etoposide 0.4 µM) was 1.19, the “Combination Index HFF-1” value (HFF-1 cells; 1.5 µM compound 7 + etoposide 0.8 µM) was 1.34 and the “Combination Index HFF-1” value (HFF-1 cells; 1.5 µM compound 7 + etoposide 1.5 µM) was 1.12. The “Combination Index HFF-1” value (HFF-1 cells; 1.5 µM compound 7 + etoposide 3 µM) was 1.09 and the “type of interaction with etoposide, HFF-1” value (HFF-1 cells; same experimental conditions as in MDA-MB-231 cells) was “no synergistic effects”.

— article PMC9501014, “Amaryllidaceae-Type Alkaloids from Pancratium maritimum: Apoptosis-Inducing Effect and Cell Cycle Arrest on Triple-Negative Breast Cancer Cells” (Molecules, 2022)
